Results reported in PMC8653295 (Chemistry (Weinheim an Der Bergstrasse, Germany), 2021).
“And” between values parts separate entries of the source, which are not always exact repeats. Identical values can stand only once.

Assays:
[1] = target: interaction of the RBD of the SARS‐CoV‐2 S protein with the ACE2 receptor (Severe acute respiratory syndrome coronavirus 2, UniProt P0DTC2); type: binding; settings: for inhibition of the S/ACE2 interaction: 20 µM
SARS‐CoV PL^pro = SARS‐CoV PL^pro (Severe acute respiratory syndrome coronavirus, UniProt P0C6X7); assay: biochemical; type: biochemical; settings: for inhibition of SARS-CoV PLpro: 10 µM
SARS‐CoV‐2 PL^pro = SARS‐CoV‐2 PL^pro (Severe acute respiratory syndrome coronavirus 2, UniProt P0DTD1); assay: biochemical; type: biochemical; settings: for inhibition of SARS-CoV-2 PLpro: 1 µM

Compound	inhibition of the S/ACE2 interaction [1] [%]	inhibition of SARS-CoV PLpro (SARS‐CoV PL^pro)	inhibition of SARS-CoV-2 PLpro (SARS‐CoV‐2 PL^pro)	further results
Na12[PbO8Pd12 (PO4)8] ⋅ 38H2O [POM‐1]	52	100%	68%	concentration up to which no significant cytotoxic effects / tolerated well (Caco‐2 cells): ≥ 200 µM; concentration up to which no significant cytotoxic effects / tolerated well (CaLu‐3 cells): ≥ 200 µM
Cn1cc(-c2ccccc2)[n+](C)[c]1[Au-][c]1n(C)cc(-c2ccccc2)[n+]1C.[I-] [Au‐24]	18	12%	-17%	
CCn1cc(-c2ccccc2)[n+](CC)[c]1[Au-][c]1n(CC)cc(-c2ccccc2)[n+]1CC.[I-] [Au‐23]	23	25%	-10%	
CC(C)n1cc(-c2ccccc2)n(C(C)C)[c]1=[Au][Cl] [Au‐16]	10	57%	41%	
[Cl][Ti]([Cl])([Cl])[Cl] [Ti‐2, titanium(IV) tetrachloride, reference compound]	0	-7%	-3%	activity against the S/ACE2 interaction (in words) [1]: inactive; activity against SARS‐CoV PL^pro (in words) (SARS‐CoV PL^pro): inactive; activity against SARS‐CoV‐2 PL^pro (in words) (SARS‐CoV‐2 PL^pro): inactive
Cc1ccc(C(C)C)cc1.[Cl-].[Cl-].[Ru+2].[c-]1n(Cc2ccccc2)cc[n+]1Cc1ccccc1 [Ru‐9]	2	12%	10%	
CCP(CC)CC.[Au+].[Cl-] [Au‐3, (triethylphosphine)AuCl, reference compound]	24	95% and > 50%	55% and > 50%	IC50 (SARS‐CoV PL^pro): 1200 ± 440 nM; IC50 (SARS‐CoV‐2 PL^pro): 1100 ± 120 nM
C1=CCCC=CCC1.Cn1[c-][n+](C)c(-c2ccc(F)cc2)c1.[Cl-].[Rh+] [Rh‐10]	14	90%	45%	
Cc1cn(CC=C[c-]2cccc2)c(=O)[nH]c1=O.[Ru+2].c1cc[cH-]c1 [Ru‐17]	26	3%	-17%	
Cn1[c]([Au-][c]2n(C)c3ccccc3[n+]2C)[n+](C)c2ccccc21.[I-] [Au‐21]	22	11%	10%	
O=C(NC1C(O)OC(CO)C(O)C1O)C1CCN(C(=S)[S][Au][PH](c2ccccc2)(c2ccccc2)c2ccccc2)CC1 (mixture of isomers) [Au‐36]	0	79%	74%	IC50 (SARS‐CoV PL^pro): 330 ± 160 nM; IC50 SARS‐CoV PL^pro (SARS‐CoV PL^pro): Submicromolar; IC50 (SARS‐CoV‐2 PL^pro): 140 ± 90 nM; IC50 SARS‐CoV‐2 PL^pro (SARS‐CoV‐2 PL^pro): Submicromolar
[Cl][Au-][c]1n(Cc2ccccc2)cc(-c2ccccc2)[n+]1Cc1ccccc1 [Au‐17]	9	-3%	13%	activity against SARS‐CoV PL^pro (in words) (SARS‐CoV PL^pro): inactive; activity against SARS‐CoV‐2 PL^pro (in words) (SARS‐CoV‐2 PL^pro): inactive
CC[n+]1[c-]n(CC2(c3ccc(Cl)cc3Cl)OCC(COc3ccc(N4CCN(C(C)=O)CC4)cc3)O2)cc1.[Au+].[Cl-] (stereo not drawn) [Au‐19]	16	94% and > 80%	2%	
Cc1ccc(C(C)C)cc1.Cc1ccc2c(c1)[n+](Cc1ccccc1)[c-]n2Cc1ccccc1.[Br-].[Br-].[Ru+2] [Ru‐2]	0	20%	5%	
Cc1cn(C/C=C/[c-]2cccc2)c(=O)[nH]c1=O.Cc1cn(C/C=C/[c-]2cccc2)c(=O)[nH]c1=O.[Fe+2] [Fe‐12]	28	-4%	-8%	
CC(=O)OC[C@H]1O[C@@H]([S-])[C@H](OC(C)=O)[C@@H](OC(C)=O)[C@@H]1OC(C)=O.CCP(CC)CC.[Au+] [Au‐1, auranofin, reference compound]	20	58% and > 50%	51% and > 50%	
K6H2[CoW11TiO40] ⋅ 12H2O [POM‐4]	82	44%	7%	activity against SARS‐CoV PL^pro (in words) (SARS‐CoV PL^pro): active only against the enzyme from SARS‐CoV
C1=CCCC=CCC1.Cn1[c-][n+](C)c(-c2ccc(F)cc2)c1.[Br-].[Rh+] [Rh‐11]	14	91%	48%	
CCN(CC)C(=S)SSC(=S)N(CC)CC [DS, disulfiram, reference compound]				inhibition at 10 µM (SARS‐CoV PL^pro; read-out: inhibition of SARS-CoV PLpro): 87%; inhibition at 1 µM (SARS‐CoV‐2 PL^pro; read-out: inhibition of SARS-CoV-2 PLpro): 73%
C1=CCCC=CCC1.CCn1[c-][n+](CC)c(-c2ccc(F)cc2)c1.[Cl-].[Rh+] [Rh‐4]	6	72%	17%	
((NH2)3C)4[(BrC6H4As)2Mo6O24] ⋅ 2H2O [POM‐9]	7	13%	7%	

Compound	inhibition of the S/ACE2 interaction [1] [%]	inhibition of SARS-CoV PLpro (SARS‐CoV PL^pro)	inhibition of SARS-CoV-2 PLpro (SARS‐CoV‐2 PL^pro)	further results
C1=CCCC=CCC1.Cn1[c-][n+](C)c(-c2ccccc2)c1.[Br-].[Rh+] [Rh‐9]	17	94%	50%	IC50 (SARS‐CoV PL^pro): 6700 ± 2400 nM; IC50 SARS‐CoV PL^pro (SARS‐CoV PL^pro): low micromolar range; IC50 (SARS‐CoV‐2 PL^pro): 2200 ± 1000 nM; IC50 SARS‐CoV‐2 PL^pro (SARS‐CoV‐2 PL^pro): low micromolar range
CCn1[c]([Au-][S]C(=S)N2CCC(C(=O)NC3C(O)OC(CO)C(O)C3O)CC2)[n+](CC)c2ccccc21 (mixture of isomers) [Au‐35]	0	85%	58%	IC50 SARS‐CoV PL^pro (SARS‐CoV PL^pro): Submicromolar; IC50 (SARS‐CoV‐2 PL^pro): 410 ± 140 nM; IC50 SARS‐CoV‐2 PL^pro (SARS‐CoV‐2 PL^pro): Submicromolar
C1=CCCC=CCC1.CCn1[c-][n+](CC)c(-c2ccccc2)c1.[Cl-].[Rh+] [Rh‐1]	0	67%	-4%	
((NH2)3C)4[(N3C6H4As)2Mo6O24] [POM‐10]	6	7%	4%	
CC(C)n1[c]([Au-][c]2n(C(C)C)c3ccccc3[n+]2C(C)C)[n+](C(C)C)c2ccccc21.[Br-] [Au‐22]	23	39%	7%	
O=[N+]([O-])[O-].[Ag+] [Ag‐1, silver nitrate, reference compound]	6	100%	72%	activity against SARS‐CoV PL^pro (in words) (SARS‐CoV PL^pro): completely inhibited; IC50 (SARS‐CoV‐2 PL^pro): 450 ± 210 nM
[Au+3].[Cl-].[Cl-].[Cl-].[Cl-].[H+] [Au‐5, chloroauric acid, reference compound]	45	89% and > 50%	72% and > 50%	
K7[Ti2PW10O40] ⋅ 6H2O [POM‐3]	68	63%	15%	
Cs3K[(HO2CC6H4CH2P)2Mo5O21] ⋅ 5H2O [POM‐8]	9	5%	7%	
C1=CCCC=CCC1.CCn1[c-][n+](CC)c(-c2ccc(F)cc2)c1.[I-].[Rh+] [Rh‐6]	22	70%	19%	
COc1ccc(C#[C][Au-][c]2n(C)c3ccccc3[n+]2C)cc1 [Au‐6]	16			
Na6[TeW6O24] ⋅ 22H2O [POM‐5]		49%	69%	concentration up to which no significant cytotoxic effects / tolerated well (Caco‐2 cells): ≥ 200 µM; concentration up to which no significant cytotoxic effects / tolerated well (CaLu‐3 cells): ≥ 200 µM
C1=CCCC=CCC1.CCn1[c-][n+](CC)c(-c2ccccc2)c1.[I-].[Rh+] [Rh‐3]	0	63%	15%	
C1=CCCC=CCC1.CCn1[c-][n+](CC)c(-c2ccccc2)c1.[Br-].[Rh+] [Rh‐2]	1	67%	17%	
Cn1cc(-c2ccccc2)n(C)[c]1=[Au][Cl] [Au‐14]	17	51%	23%	
C[CH2][Hg][S]c1ccccc1C(=O)[O-].[Na+] [Hg‐1, thiomersal, reference compound]	7	-63%	9%	
C1=CCCC=CCC1.CCn1[c-][n+](CC)c(-c2ccc(F)cc2)c1.[Br-].[Rh+] [Rh‐5]	5	71%	19%	
CC(C)n1cc(-c2ccccc2)[n+](C(C)C)[c]1[Au-][c]1n(C(C)C)c(-c2ccccc2)c[n+]1C(C)C.[I-] [Au‐29]	8	24%	4%	
C1=CCCC=CCC1.Cn1[c-][n+](C)c(-c2ccccc2)c1.[Cl-].[Rh+] [Rh‐8]	12	93%	35%	
[Cl][Au].c1ccc(P(c2ccccc2)c2ccccc2)cc1 [Au‐4, (triphenylphosphine)AuCl, reference compound]	19	50% and > 50%	78% and > 50%	
